Experiment [1] has as its target T1, α2 -adrenergic binding sites (receptor) (Rattus norvegicus, UniProt P22909).
T1 construct: to displace ^3 H-clonidine (an α2 -adrenergic agonist) from membranes of rat brain; from tissue; host or cells: rat cerebral cortex homogenate (membranes)
T1 sequence (P22909 1-465): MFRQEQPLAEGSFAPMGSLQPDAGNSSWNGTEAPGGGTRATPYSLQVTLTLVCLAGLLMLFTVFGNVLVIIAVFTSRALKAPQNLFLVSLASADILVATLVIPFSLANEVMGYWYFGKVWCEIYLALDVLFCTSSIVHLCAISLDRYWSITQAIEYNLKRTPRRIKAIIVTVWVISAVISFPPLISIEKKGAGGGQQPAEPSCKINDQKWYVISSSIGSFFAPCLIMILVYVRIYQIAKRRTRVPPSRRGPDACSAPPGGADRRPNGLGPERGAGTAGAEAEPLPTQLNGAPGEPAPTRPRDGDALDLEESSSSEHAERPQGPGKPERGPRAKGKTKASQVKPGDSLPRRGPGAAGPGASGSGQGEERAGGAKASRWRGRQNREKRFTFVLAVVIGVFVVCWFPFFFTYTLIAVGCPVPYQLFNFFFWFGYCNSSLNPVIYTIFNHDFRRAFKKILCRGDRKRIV
Put plainly: Tritiated Clonidine Receptor Binding Assay. The conditions noted are these: for inhibition at 1 µM: at 1000 nM, read-out: Clonidine [^3 H] Binding % I. Here is the method:
(§1) The α2 -adrenergic antagonist activity is measured by three screening methods, described as follows:
(1) Tritiated Clonidine Receptor Binding Assay
Affinity is determined by assessing the ability of compounds to displace ^3 H-clonidine (an α2 -adrenergic agonist) from membranes of rat brain. Homogenates of rat cerebral cortex are incubated with 0.4 nM ^3 H-clonidine which binds to the α2 -adrenergic binding sites (receptor) present on the membranes of the homogenate. Compounds that bind to the α2 -adrenergic receptor, when added to the incubation mixture, will displace ^3 H-clonidine from its binding site, thereby diminishing the amount of bound radioactivity. The amount of ^3 H-clonidine still bound is quantitated by liquid scintillation spectrometry. The results are determined in terms of percent inhibition or as Ki values. Ki is a measure of the apparent affinity of the test substance for the α2 -adrenergic binding site, as determined by the method of Cheng and Prusoff, Biochemical Pharmacology 22, 3099 (1973).

Experiment [2] deals with mice (α2 -adrenergic antagonism of clonidine). In words: In vivo Antagonism of Clonidine-induced Anti-nociception (phenyl-p-quinone writhing). The following applies: Mus musculus; for ED50: read-out: Antagonism of Clonidine Analgesia ED50 -p.o. Here is the method:
as §1
(3) In vivo Antagonism of Clonidine-induced Anti-nociception
The intraperitoneal administration of phenyl-p-quinone (PPQ) to mice elicits a nociceptive response which consists of abdominal writhing and extension of the hind limbs. This writhing response is prevented in mice treated with clonidine. When an α2 -adrenergic antagonist is given prior to clonidine, the mice display the writhing response when PPQ is administered. To groups of thirty male mice for each experiment the test compound dissolved in 0.9% sodium chloride was administered either subcutaneously or orally. Clonidine (0.2 mg/kg) was administered orally when the test compound was given subcutaneously and subcutaneously when the test compound was administered orally. Twenty minutes after the administration of clonidine, PPQ (3 mg/kg) was given intraperitoneally. […] The number of mice that writhed at least three times during the five minute observation period was counted. The number of mice that writhed was scored for each dose of antagonist, and the percentage reversal of clonidine-induced anti-nociception (analgesia) was calculated by dividing the number of animals writhing by the total number of test animals and multiplying the quotient by 100.

Experiment [3] addresses T2, α2 -adrenergic, isolated rat vas deferens (Rattus norvegicus, UniProt P22909).
T2 construct: isolated, electrically stimulated rat vas deferens; from tissue; host or cells: isolated rat vas deferens
T2 sequence (P22909 1-465): T1 sequence (P22909 1-465)
Put plainly: Vas Deferens Assay: antagonism of clonidine-induced inhibition of twitch height. Format: biochemical. Here is the method: as §1
Activity is determined by assessing the ability of compounds to antagonize the inhibition of twitch height induced by clonidine in the isolated, electrically stimulated rat vas deferens. […] The tissue is then rinsed to remove clonidine and, when the twitch height has returned to normal, the test compound is added. The ability of clonidine to inhibit twitch height is then again determined, and the clonidine-induced inhibition in the presence of the test compound is used to calculate percent antagonism of clonidine. Results are recorded in terms of percent inhibition at the concentration of antagonist used, or as pA2 values, determined by the Schild method; cf. Tallarida and Murray, Manual of Pharmacologic Calculations, pp. 29-32 (Springer-Verlag, 1981).

A further experiment relates to mice. Put plainly: Prevention of tetrabenazine-induced ptosis in mice. Format: in vivo. The conditions noted are these: Mus musculus, read-out: Tetrabenazine Reversal ED50. The source says:
A further measure of potential andidepressant activity was obtained by determining the effectiveness of the compounds of the invention in prevention of tetrabenazine-induced ptosis in mice by the method described by Barnett et al., Int. J. Neuropharmacol. 8, 353-360 (1969). The results were expressed in terms of ED50 values (effective dose in 50% of the animals).

The test system of another experiment is male rats. In words: Diuretic activity in male rats in comparison with hydrochlorothiazide. It is filed as in vivo, rat.
Experiment [4] concerns α2 -adrenergic. In words: α2 -adrenergic antagonist activity (general statement). The method, then:
On the other hand, the sympathomimetic activity characteristic of the latter group of compounds is not present in the compounds of the present invention.
The α2 -adrenergic antagonist activity is measured by three screening methods, described as follows: […]

Experiment [5] has as its system α2 -adrenergic. The following applies: prior-art compounds; cited from earlier work.
Setting [6] is: 0.4 nM ^3 H-clonidine, rat cerebral cortex homogenate, read-out: Clonidine [^3 H] Binding Ki.
Setting [7] is: sc, 100 mg/kg s.c., read-out: Antagonism of Clonidine Analgesia % A.
[8] abbreviates: Schild method, clonidine 10 nM, read-out: Rat Vas Deferens pA2 (converted).
Setting [9] is: po, 100 mg/kg p.o., read-out: Antagonism of Clonidine Analgesia % A.
Setting [10] is: 0.4 nM ^3 H-clonidine, rat cerebral cortex homogenate.
Where [11] appears, read: rat, at 500 nM, clonidine 10 nM.
The mark [12] stands for this setting: sc, 30 mg/kg s.c., read-out: Antagonism of Clonidine Analgesia % A.

The text below walks through data of patent US4540705A, “Antidepressant imidazolines and related compounds” (priority 1983, dated 1985).

Structures are written as SMILES. Where two headings read alike, the source gives them in different places.

As to `C[C@@H]1c2ccccc2CC[C@H]1CC1=NCCN1` (relative stereo) [15(d), trans-4,5-Dihydro-2-[(1,2,3,4-tetrahydro-1-methyl-2-naphthalenyl)methyl]-1H-imidazole], in experiment [1] (setting [6]), the inhibition constant Ki was 401 nM. In addition, the responders at 100 mg/kg in experiment [2] (setting [7]) turned out to be 30%.

With `C[C@@H]1c2ccccc2CC[C@@H]1CC1=NCCN1` (relative stereo) [Example 16, cis-4,5-Dihydro-2-[(1,2,3,4-tetrahydro-1-methyl-2-naphthalenyl)methyl]-1H-imidazole], the Ki in experiment [1] (setting [6]) turned out to be 135 nM. Moreover, in experiment [3] (setting [8]), the Kb was 60.3 nM.

For `CC1=C(CC2=NCCN2)CCc2ccccc21` [1(b), 2-[(3,4-Dihydro-1-methyl-2-naphthalenyl)methyl]-4,5-dihydro-1H-imidazole], the Ki in experiment [1] (setting [6]) was 11.9 nM. In addition, the Kb in experiment [3] (setting [8]) was 63.1 nM. Besides, the responders at 100 mg/kg in experiment [2] (setting [9]) amounted to 50%. For the same compound, the median effective dose (ED50) in experiment [2] (po) amounted to 111 mg/kg; with mice it was 18 mg/kg.

`CC1=C(CC2=NCCN2C)CCc2ccccc21` [4(b), 2-[(3,4-Dihydro-1-methyl-2-naphthalenyl)methyl]-4,5-dihydro-1-methyl-1H-imidazole]: in experiment [1] (setting [10]), the inhibition at 1 µM was 60%. For the same compound, in experiment [3] (at 500 nM, clonidine 10 nM, 0.5 µM), the “Rat Vas Deferens % A.” value is recorded as 3%. Moreover, the inhibition at 0.5 µM in experiment [3] (setting [11]) was 2%. Also, the responders at 100 mg/kg in experiment [2] (setting [7]) was 20%.

For `CC(C1=Cc2ccccc2CC1)C1=NCCN1` (stereo not shown) [7(b), 2-[1-(3,4-Dihydro-2-naphthalenyl)ethyl]-4,5-dihydro-1H-imidazole], the inhibition constant Ki in experiment [1] (setting [6]) worked out at 32 nM. Besides, the Kb in experiment [3] (setting [8]) is 37.2 nM. Besides, in experiment [2] (setting [12]), the responders at 30 mg/kg was found to be 70%.

Consider `COc1ccc2c(c1)CCC(CC1=NCCN1)=C2C` [8(b), 2-[(3,4-Dihydro-6-methoxy-1-methyl-2-naphthalenyl)methyl]-4,5-dihydro-1H-imidazole], for which, in experiment [1] (setting [10]), the inhibition at 1 µM turned out to be 53%. The compound further gave an inhibition at 0.5 µM in experiment [3] (setting [11]) of 1%.

Regarding `CC1=C(CC2=NCCN2)Cc2ccccc21` [9(b), 4,5-Dihydro-2-[(3-methyl-1H-inden-2-yl)methyl]-1H-imidazole], the inhibitory constant (Ki) in experiment [1] (setting [6]) worked out at 7 nM. The Kb in experiment [3] (setting [8]) is 19.5 nM. For the same compound, in experiment [2] (po, 30 mg/kg p.o., read-out: Antagonism of Clonidine Analgesia % A.), the responders at 30 mg/kg came to 10%.

Take `C1=C(CC2=NCCN2)Cc2ccccc21` [10(b), 4,5-Dihydro-2-[(1H-inden-2-yl)methyl]-1H-imidazole]: the inhibition constant (Ki) in experiment [1] (setting [6]) came to 76 nM. Further, the Kb in experiment [3] (setting [8]) was 64.6 nM. In experiment [2] (sc, 10 mg/kg s.c., read-out: Antagonism of Clonidine Analgesia % A.), the responders at 10 mg/kg was 70%.

As to `Cc1c(CC2=NCCN2)ccc2ccccc12` [17(e), 4,5-Dihydro-2-[(1-methyl-2-naphthalenyl)methyl]-1H-imidazole], the inhibitory constant (Ki) in experiment [1] (setting [6]) was found to be 7 nM. The Kb in experiment [3] (setting [8]) was 44.7 nM. In addition, the values for the ED50 (in experiment [2] (po); in the experiment on mice) were 27 mg/kg and 3 mg/kg, respectively. The responders at 100 mg/kg in experiment [2] (setting [7]) was determined as 70%.

For the compound `C1=C(CC2=NCCN2)CCc2ccccc21` [Example 2(b), 2-[(3,4-Dihydro-2-naphthalenyl)methyl]-4,5-dihydro-1H-imidazole], the inhibitory constant (Ki) in experiment [1] (setting [6]) was 28 nM. Also, the Kb in experiment [3] (setting [8]) was 17.4 nM. Further, the ED50 was found to be 33 mg/kg in experiment [2] (po) and 284 mg/kg with mice. Also, the responders at 100 mg/kg in experiment [2] (setting [7]) worked out at 90%.

As to `CC1=C(CC2=NCCCN2)CCc2ccccc21` [Example 3, 2-[(3,4-Dihydro-1-methyl-2-naphthalenyl)methyl]-1,4,5,6-tetrahydropyrimidine], the Ki in experiment [1] (setting [6]) stood at 334 nM.

With `CCN1CCN=C1CC1=C(C)c2ccccc2CC1` [Example 5, 2-[(3,4-Dihydro-1-methyl-2-naphthalenyl)methyl]-1-ethyl-4,5-dihydro-1H-imidazole], in experiment [1] (setting [6]), the inhibitory constant (Ki) came to 548 nM. Moreover, the inhibition at 0.5 µM in experiment [3] (setting [11]) came to 2%. The responders at 100 mg/kg in experiment [2] (setting [7]) was 20%.

As for `CC1=C(CC2=NC(C)CN2)CCc2ccccc21` (stereo not shown) [Example 6, 2-[(3,4-Dihydro-1-methyl-2-naphthalenyl)methyl]-4,5-dihydro-4-methyl-1H-imidazole], in experiment [1] (setting [10]), the inhibition at 1 µM stood at 59%. The compound also yielded an inhibition at 0.001 µM in experiment [3] (rat, at 1 (head: Conc. (nM)), clonidine 10 nM) of 3%. Further, the responders at 100 mg/kg in experiment [2] (setting [7]) stood at 20%.

As to `CC1=C(Cc2ncc[nH]2)CCc2ccccc21` [Example 11, 2-[(3,4-Dihydro-1-methyl-2-naphthalenyl)methyl]-1H-imidazole], in experiment [1] (setting [6]), the inhibition constant Ki amounted to 88 nM. Further, the Kb in experiment [3] (setting [8]) was 120 nM. Also, in experiment [2] (setting [12]), the responders at 30 mg/kg turned out to be 60%.

Take `CC1=C(CC2=NCC(C)(C)CN2)CCc2ccccc21` [Example 12, 2-[(3,4-Dihydro-1-methyl-2-naphthalenyl)methyl]-1,4,5,6-tetrahydro-5,5-dimethylpyrimidine]: the “increase of sodium excretion, activity relative to hydrochlorothiazide” value with male rats (30 mg/kg oral) is on record as 38%; in the experiment on male rats (100 mg/kg oral), 94%. Also, the “diuretic activity (in words)” value in the experiment with male rats (in comparison with hydrochlorothiazide) is given as “found to possess diuretic activity”. The “α2 -adrenergic antagonist activity (in words)” value with α2 -adrenergic [4] is “apparently devoid of any significant α2 -adrenergic antagonist properties”.

For `c1ccc2cc(CC3=NCCN3)ccc2c1` [Example 18, 4,5-Dihydro-2-(2-naphthalenylmethyl)-1H-imidazole], the Ki in experiment [1] was 48 nM. The same compound gave a Kb in experiment [3] of 21.4 nM. The responders at 100 mg/kg in experiment [2] (setting [9]) stood at 80%. Also, the 50% effective dose (ED50) in experiment [2] (po) came out at 53 mg/kg; in the experiment with mice, 27 mg/kg.

With `c1ccc2c(c1)CCCC2C1=NCCN1` (stereo not shown) [tetrahydrozoline, 2-(1,2,3,4-tetrahydro-1-naphthyl)-2-imidazoline, reference compound], the “α2 -adrenergic antagonist activity (in words)” value in the experiment with α2 -adrenergic [4] is “essentially devoid of such activity”. Also, the “α2 -adrenergic antagonist activity (in words, background section)” value with α2 -adrenergic [5] was “do not possess α2 -adrenergic antagonist activity”.
